Data reported in publication PMC11522050, “Cloning, expression and characterisation of a novel mollusc α-1,2-Fucosyltransferase from Crassostrea gigas (CgFUT2)” (Glycoconjugate Journal, 2024).

Legend:
CgFUT2 [1] = molecular target: T1, CgFUT2 (Magallana gigas, UniProt A0AA95ZAK5); assay: fucosyl transfer to pNP-lactose, HPLC with UV detection; type: biochemical; settings: 0.25 mM GDP; 3 mM GDP-Fuc, 0.5 mM pNP-β-lactose, 20 mM MnCl2, 2 mM ATP, MES pH 7.0, 37 °C; Sf9 lysate
T1 construct: crude cell lysate used (purification failed)
T1 sequence (A0AA95ZAK5 1-350): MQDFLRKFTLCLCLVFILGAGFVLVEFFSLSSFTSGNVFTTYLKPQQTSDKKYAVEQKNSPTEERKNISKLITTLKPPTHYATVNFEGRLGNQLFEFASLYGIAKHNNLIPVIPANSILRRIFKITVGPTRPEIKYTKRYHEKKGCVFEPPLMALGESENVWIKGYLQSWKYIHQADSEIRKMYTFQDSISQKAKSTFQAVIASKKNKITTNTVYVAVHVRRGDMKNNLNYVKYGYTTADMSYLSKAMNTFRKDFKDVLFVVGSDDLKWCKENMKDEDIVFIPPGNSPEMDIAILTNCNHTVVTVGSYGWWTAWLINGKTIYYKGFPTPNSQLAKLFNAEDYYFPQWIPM

CgFUT2 [2] = molecular target: T1, CgFUT2; assay: fucosyl transfer, HPLC with UV detection; product by NMR; type: biochemical; settings: acceptor; 3 mM GDP-Fuc, 20 mM MnCl2, MES pH 7.0, 37 °C; control Sf9 lysate without enzyme as blank

Row | % decrease of activity at 0.25 mM (CgFUT2 [1]) [%] | SMILES | fucosyl transfer, HPLC with UV detection; product by NMR (CgFUT2 [2])
1 | 30 | Nc1nc2c(ncn2[C@@H]2O[C@H](COP(=O)(O)OP(=O)(O)O)[C@@H](O)[C@H]2O)c(=O)[nH]1 [GDP] | 
2 |  | O=[N+]([O-])c1ccc(O[C@@H]2O[C@H](CO)[C@@H](O[C@@H]3O[C@H](CO)[C@H](O)[C@H](O)[C@H]3O)[C@H](O)[C@H]2O)cc1 [pNP-β-lactose] | Sf9 cell lysate expressing CgFUT2 and a control Sf9 cell lysate was assessed using pNP-β-lactose
